# Source: patent US7521418B2, “Use of a polyene macrolide antifungal agent in combination with a glycopeptide antibacterial agent” (Theravance, Inc., priority 2003, dated 2009)
# How the values were obtained:
# Assay in all cases: Checkerboard MIC assay, FICI
# [1] = tested on: C. krusei ATCC 32672; format: cell-based, Candida krusei; conditions: combination with Compound 1; C. krusei ATCC 32672
# Description: (§1) The following assay was used to determine the minimum inhibitory concentration (MIC) and fractional inhibitory concentration index (FICI) for combinations of an antifungal agent and a glycopeptide antibacterial agent. This assay and methods for calculating FICI are well known in the art. See, for example, Eliopoulos, E. G. and R. Moellering, Jr. “Antimicrobial Combinations” in Antibiotics in Laboratory Medicine, edited by V. Lorian, 4th Ed., Williams & Wilkins, Baltimore, MD, pp. 330-396 (1996); […] et al., Antimicrobial Agents and Chemotherapy 47(4):1416-1418 (2003); or […] et al., Antimicrobial Agents and Chemotherapy 46(10):3323-3326 (2002). Procedures, protocols, supplies and equipment used in this assay follow the recommendations approved and published by the National Committee for Clinical Laboratory Standards (NCCLS), Wayne, Pa. as described in NCCLS 2003, “Reference Method for Broth Dilution Antimicrobial Susceptibility Tests for Bacteria that Grow Aerobically; Approved Standard” (NCCLS document M7-A6); NCCLS 2002, “Reference Method for Broth Dilution Antifungal Susceptibility Tests of Filamentous Fungi that Grow Aerobically; Approved Standard” (NCCLS document M38-A); and NCCLS 2002 “Reference Method for Broth Dilution Antifungal Susceptibility Tests of Yeast; Approved Standards-2nd Edition” (NCCLS document M27-A2). Using a checkerboard method, a 2-fold dilution 100× final concentration master plate was prepared using a 96-well U-shape microtiter plate and an appropriate solvent. In the “checkerboard” method, a microtiter plate is divided into “columns” in which each well in the column contains the same amount of an antifungal agent (Compound A) being diluted along the x-axis, and “rows” in which each well in the row contains the same amount of a glycopeptide antibacterial agent (Compound B) being diluted on the y-axis. Also included is a row (or column) for Compound A or B alone. The dilutions used in the checkerboard are exponential (by powers of two). The result is that each well in the microtiter plate contains a unique concentration of the two compounds being tested. […] After mixing, 100 μL of 2× drug combinations were distributed into 96-well microtiter plates. […] Compound A was not added to Column 12, so Column 12 contained only Compound B. Compound B was diluted from row A starting at 6,400 μg/mL down to row G (100 μg/mL). Wells in Row A contained a final concentration of 64 μg/mL of Compound B; Row B contained a final concentration of 32 μg/mL of Compound B; Row C contained a final concentration of 16 μg/mL of Compound B; etc. Compound B was not added to Row H, so Row H only contained Compound A. […] The MIC of the glycopeptide antibacterial agent determined from this experiment was used in FIC calculations. […] RPMI-1640 without sodium bicarbonate media (GIBCO-BRL, Carlsbad, Calif.), an enriched media formulated for mammalian cells, was used according to the NCCLS guidelines for yeast and filamentous fungi susceptibility testing. The medium was buffered with 0.165 M 3-[N-Morpholino]propanesulfonic acid (MOPS) supplemented with 20 g/L glucose and pH adjusted to 7.0 with hydrogen chloride. Sabouraud Dextrose Agar ([…] plates, and Potato Dextrose Agar (PDA) plates were purchased from Hardy Diagnostic (Santa Maria, Calif.). Yeast cultures were started from -80° C. frozen stock streaked on […] incubated at 35° C. under aerobic conditions for 24 h. The […] in the refrigerator for up to 2 weeks and used regularly as a starting culture. About 24 to 48 h before each assay was run, yeasts were streaked on SDA plates for isolated colonies. To prepare the inoculum, from one to four colonies were resuspended in 5 mL of saline, and vortexed for 15 sec. […] For most yeast and mold cultures, the optical density (OD) of the suspension was adjusted to 0.11 in saline to provide 0.4×10^6 CFU/mL. However, for Fusarium moniliforme and Pseudallescheria boydii the OD of the suspension was adjusted to OD=0.17 to provide 0.4×10^6 CFU/mL. […]
# [2] = tested on: C. glabrata ATCC 200918; format: cell-based, Candida glabrata; conditions: combination with Compound 1
# Description: The following assay was used to determine the minimum inhibitory concentration (MIC) and fractional inhibitory concentration index (FICI) for combinations of an antifungal agent and a glycopeptide antibacterial agent. This assay and methods for calculating FICI are well known in the art. See, for example, Eliopoulos, E. G. and R. Moellering, Jr. “Antimicrobial Combinations” in Antibiotics in Laboratory Medicine, edited by V. Lorian, 4th Ed., Williams & Wilkins, Baltimore, MD, pp. 330-396 (1996); […] et al., Antimicrobial Agents and Chemotherapy 47(4):1416-1418 (2003); or […] et al., Antimicrobial Agents and Chemotherapy 46(10):3323-3326 (2002). Procedures, protocols, supplies and equipment used in this assay follow the recommendations approved and published by the National Committee for Clinical Laboratory Standards (NCCLS), Wayne, Pa. as described in NCCLS 2003, “Reference Method for Broth Dilution Antimicrobial Susceptibility Tests for Bacteria that Grow Aerobically; Approved Standard” (NCCLS document M7-A6); NCCLS 2002, “Reference Method for Broth Dilution Antifungal Susceptibility Tests of Filamentous Fungi that Grow Aerobically; Approved Standard” (NCCLS document M38-A); and NCCLS 2002 “Reference Method for Broth Dilution Antifungal Susceptibility Tests of Yeast; Approved Standards-2nd Edition” (NCCLS document M27-A2). Using a checkerboard method, a 2-fold dilution 100× final concentration master plate was prepared using a 96-well U-shape microtiter plate and an appropriate solvent. In the “checkerboard” method, a microtiter plate is divided into “columns” in which each well in the column contains the same amount of an antifungal agent (Compound A) being diluted along the x-axis, and “rows” in which each well in the row contains the same amount of a glycopeptide antibacterial agent (Compound B) being diluted on the y-axis. Also included is a row (or column) for Compound A or B alone. The dilutions used in the checkerboard are exponential (by powers of two). The result is that each well in the microtiter plate contains a unique concentration of the two compounds being tested. […] After mixing, 100 μL of 2× drug combinations were distributed into 96-well microtiter plates. […] Compound A was not added to Column 12, so Column 12 contained only Compound B. Compound B was diluted from row A starting at 6,400 μg/mL down to row G (100 μg/mL). Wells in Row A contained a final concentration of 64 μg/mL of Compound B; Row B contained a final concentration of 32 μg/mL of Compound B; Row C contained a final concentration of 16 μg/mL of Compound B; etc. Compound B was not added to Row H, so Row H only contained Compound A. […] The MIC of the glycopeptide antibacterial agent determined from this experiment was used in FIC calculations. […]
# [3] = tested on: C. parapsilosis ATCC 22019; format: cell-based, Candida parapsilosis; conditions: combination with Compound 1; C. parapsilosis ATCC 22019
# Description: as §1
# [4] = tested on: C. tropicalis ATCC 750; format: cell-based, Candida tropicalis; conditions: combination with Compound 1; C. tropicalis ATCC 750
# Description: as §1
Structure (SMILES),FICI [1],FICI [2],FICI [3],FICI [4]
C[C@@H]1[C@H](O)[C@@H](C)/C=C/C=C/C=C/C=C/C=C/C=C/C=C/[C@H](O[C@@H]2O[C@H](C)[C@@H](O)[C@H](N)[C@@H]2O)C[C@@H]2O[C@](O)(C[C@@H](O)C[C@@H](O)[C@H](O)CC[C@@H](O)C[C@@H](O)CC(=O)O[C@H]1C)C[C@H](O)[C@H]2C(=O)O [Amphotericin B],0.31,0.19,0.28,0.27
C[C@@H]1[C@H](O)[C@@H](C)/C=C/C=C/CC/C=C/C=C/C=C/C=C/C(O[C@H]2O[C@H](C)[C@@H](O)[C@H](N)[C@@H]2O)CC2O[C@](O)(CC(O)C(O)CCC(O)CC(O)CC(O)CC(=O)O[C@H]1C)CC(O)C2C(=O)O (some centres unmarked) [Nystatin],0.50,0.31,0.31,0.31
